Patent US10143747B2, “Breast cancer therapeutics” (IMBA—INSTITUT FÜR MOLEKULARE BIOTECHNOLOGIE GMBH, priority 2010, dated 2018)

Test system: mammary epithelial cells
Test: γ-irradiation induced mammary epithelial cell apoptosis in vivo (active Caspase 3)
Design: species or system mouse
Conditions: MPA pellet, 5 Gray
Procedure: a, Western blotting for phosphorylated (P) IKKα, total IKKα, phosphorylated (P) p65 NFκB, total p65 NFκB, phosphorylated (P) IκBα, and total IκBα in isolated primary mouse mammary gland epithelial cells (MECs) in response to RANKL stimulation (1 μg/ml). β-actin is shown as loading control. b, Western blotting for IKKα, IKKβ, IKKγ, phosphorylated (P) p65 NFκB, total p65 NFκB, phosphorylated (P) IκBα, and total IκBα in pooled late stage mammary adenocarconimas (n=4 for each lane) that developed in control, RANK^Δmam and IKKΔ^Δmam females. β-actin is shown as loading control c, Expression of RANK, CyclinD1, and p21 mRNA in late stage mammary adenocacinomas that developed in control, RANK^Δmam, and IKKα^Δmam females. Expression was determined by qRT-PCR. […] Apoptosis was detected by immunostaining for active Caspase 3. f, Apoptotic nuclei of epithelial cells (arrows) are shown for representative mammary gland sections. Magnifications×40. g, Quantification of mammary epithelial apoptosis. A minimum of 5000 nuclei was counted for each mouse. […]
For measurement of cell cycle arrest and apoptosis primary mouse mammary epithelial cells and SKBR3 human breast cancer cells were seeded at a cell-density of 100000 cells/well in a 6-well plate and allowed to grow for 24 hours. […] Cell cycle arrest and numbers of dead cells were determined using propidium iodine staining. […]

For `CC(=O)O[C@]1(C(C)=O)CC[C@H]2[C@@H]3C[C@H](C)C4=CC(=O)CC[C@]4(C)[C@H]3CC[C@@]21C` [MPA, medroxyprogesterone acetate], the “protective effect of MPA on γ-irradiation-induced cell death” value (RANKΔmam females) was “abrogated the protective effects of MPA” and the “γ-irradiation-induced apoptosis of mammary epithelial cells in vivo” value (control females) was “protected from γ-irradiation-induced apoptosis”.
